pIC50: −log10 of the molar value.

Consider six molecules from US9174968B2, “Pyrimidinone compounds for use in the treatment of diseases or conditions mediated by LP-PLA2” (GLAXO GROUP LIMITED, priority 2010, dated 2015).

Assay [1] has as its target T1, recombinant human Lp-PLA2 (Homo sapiens, UniProt Q13093).
T1 sequence (Q13093 22-441): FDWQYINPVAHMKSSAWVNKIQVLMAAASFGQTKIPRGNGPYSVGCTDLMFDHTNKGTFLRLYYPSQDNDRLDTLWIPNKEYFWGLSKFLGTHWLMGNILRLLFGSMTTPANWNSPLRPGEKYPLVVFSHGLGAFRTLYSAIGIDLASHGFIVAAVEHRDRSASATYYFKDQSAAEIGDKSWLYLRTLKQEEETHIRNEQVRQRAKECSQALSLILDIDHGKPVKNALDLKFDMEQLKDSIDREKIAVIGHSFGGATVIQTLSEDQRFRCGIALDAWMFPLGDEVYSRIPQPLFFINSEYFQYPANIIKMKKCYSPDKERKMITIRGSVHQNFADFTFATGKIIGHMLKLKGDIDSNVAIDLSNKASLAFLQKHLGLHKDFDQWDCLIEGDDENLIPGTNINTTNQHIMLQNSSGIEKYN
The assay is described as follows: Recombinant human Lp-PLA2 assay (rhLp-PLA2, PED6 assay). The assay is classed as biochemical. The note with it: upper limit for pIC50 obtained in this assay is 9.3. An excerpt: (1) Recombinant Human Lp-PLA2 Assay (rhLp-PLA2) (Also Referred to as “PED6” Assay)
N-((6-(2,4-dinitrophenyl)amino)-hexanoyl)-2-(4,4-difluoro-5,7-dimethyl-4-bora-3a,4a-diaza-s-indacene-3-pentanoyl)-1-hexadecanoyl-sn-glycero-3-phosphoethanolamine, triethylammonium salt (PED6) is a commercially available fluorescently-labelled phospholipid, which is commercially available from Molecular Probes. There is a quenching para-nitro phenyl (PNP) group in the sn3 position and a Bodipy fluorescein (FL) group in the sn2 position. Upon cleavage with Lp-PLA2, the Bodipy F1 group is liberated and then may result in an increase in fluorescence.
The PED6 assay was run as an unquenched 10 μL assay. Compounds source plate was prepared by making 1:3 (by volume) serial dilution of the compounds into pure DMSO on 384-well microplate. […] 5 μL of recombinant human Lp-PLA2 enzyme (2 nM rhLp-PLA2 in assay buffer of 50 mM HEPES, pH7.4, 150 mM NaCl, 1 mM CHAPS) was added to each well of the plate with compounds. Plates were centrifuged for 10 sec at 500 rpm. […] Plates were centrifuged for 10 sec at 500 rpm. Plate was covered to protect from light and incubated for 20 min at room temperature. […] PIC50 data, curve and QC analysis was conducted by using XL fit module in Excel.

Assay [2] concerns the target T2, Lp-PLA2 from plasma (pooled human plasma) (Homo sapiens, UniProt Q13093).
T2 construct: from tissue; host or cells: pooled human plasma
T2 sequence (Q13093 22-441): T1 sequence (Q13093 22-441)
The assay is described as follows: Lp-PLA2 human plasma assay (Thio-PAF assay). The assay is classed as biochemical. As to conditions: read-out: pIC50 in the thio-PAF assay (converted). An excerpt:
(3) Lipoprotein-Associated Phospholipase A2 (Lp-PLA2) Human Plasma Assay (Also Referred to as “Thio-PAF Assay”)
The human plasma assay utilizes a thioester analog of PAF (phosphatidylcholine), where hydrolysis yields to the formation of a phospholipid containing a free thiol group. The amount of thiol is quantitated continuously by reacting with CPM (7-diethylamino-3-(4′-maleimidylphenyl)-4-methylcoumarin), a maleimide which increases in fluorescence after Michael addition of thiols. This assay may detect the activity of Lp-PLA2 from plasma, as determined by specific inhibition by Lp-PLA2 inhibitors.
The thio-PAF assay was run as a quenched 15 μL assay. Compounds source plate was prepared by making 1:3 (by volume) serial dilution of the compounds into pure DMSO on 384-well microplate. 0.01 μL of compounds on compound source plate were transferred to 384 well Greiner 784076 (black) low-volume plates by ECHO liquid dispenser. 8 μL pooled human plasma, which was previously aliquoted and frozen, was added. Plates were centrifuged for 10 sec at 500 rpm. After 30 minutes preincubation, 2 μL of substrate (2.5 mM thio-PAF, 3.2 mM NEM (N-ethylmaleimide) [made fresh daily in DMSO], and 32 μM CPM [from a DMSO stock] in assay buffer of 50 mM HEPES, pH7.4, 150 mM NaCl, 1 mM CHAPS was added to 384 well Greiner 784076 (black) low-volume plates by BRAVO liquid handling station. Plates were centrifuged for 10 sec at 500 rpm. Plate was covered to protect from light and incubated for 2 min at room temperature. Reaction was quenched with 5 μL of 5% aqueous trifluoroacetic acid (TFA). Plates were covered to protect from light and incubated for 40 min at room temperature. Plates were read at ex: 380/em: 485 using-Envision microplate reader. PIC50 data, curve and QC analysis was conducted by using XLFit module in Excel.
All exemplified compounds of the present invention were tested in thio-PAF assay or similar assay as described above.

Assay [3] concerns proinflammatory (M1) and anti-inflammatory (M2) markers in macrophages. As to the kind of experiment: Experimental autoimmune encephalomyelitis (EAE) model, ex vivo analysis of M1 and M2 markers by realtime PCR. It is filed as in vivo, rats. The note with it: EAE induced with MBP, splenic macrophages day 13 and CNS infiltrating macrophages. As for the experimental part:
A further study was carried out to study the impact of Lp-PLA2 inhibitors on modulating M1/M2 imbalance. In this study, rats were induced to develop experimental autoimmune encephalomyelitis (EAE) by immunization with myelin basic protein (MBP) antigen and treated with a known Lp-PLA2 inhibitor: 5-((9-Methoxy-4-oxo-6,7-dihydro-4H-pyrimido[6,1-a]isoquinolin-2-yl)oxy)-2-(3-(trifluoromethyl)phenoxy)benzonitrile (See PCT application no. PCT/CN2011/001597) For preventive treatment, compound administration started at day 0 whereas it started at 7 day in therapeutic treatment. Rats were subsequently monitored for symptoms of EAE. Rats were immunized with MBP to develop EAE and symptoms were monitored daily. Plasma Lp-PLA2 activity and LysoPC concentration were determined at different time points through the course of EAE.
Ex vivo analysis of proinflammatory (M1) and anti-inflammatory (M2) markers in control and compound treated EAE […]. Splenic macrophages were harvested at day 13 post MBP-immunization and assayed for expression of a variety of markers by realtime PCR. CNS infiltrating cells were harvested and macrophages were analyzed for expression of M1 and M2 markers by realtime PCR.

For the molecule `CCc1c[nH]c(OCCc2ccc(Oc3c(F)cc(Cl)cc3F)cc2)nc1=O` [E180, 2-(4-(4-chloro-2,6-difluorophenoxy)phenethoxy)-5-ethylpyrimidin-4(1H)-one], the pIC50 (commonly the IC50 on a negative log10 scale, so that one unit is a factor of ten) in assay [1] was under 5.00. Besides, the IC50 in assay [2] is over 10 µM. In the case of `CCc1c[nH]c(CCc2ccc(Oc3ccc(F)cc3)cc2)nc1=O` [E46, 5-ethyl-2-(4-(4-fluorophenoxy)phenethyl)pyrimidin-4(1H)-one], in assay [1], the pIC50 was under 5.00. On to `CCc1c[nH]c(CCc2ccc(Oc3cccc(C(F)(F)F)c3)cc2)nc1=O` [E37, 5-ethyl-2-(4-(3-(trifluoromethyl)phenoxy)phenethyl)pyrimidin-4(1H)-one], for which the negative logarithm of the IC50 (pIC50) in assay [1] is under 5.00. Further, in assay [2], the IC50 is over 10 µM.

With `COc1ccc2c(c1)CCn1c-2cc(Oc2ccc(Oc3cccc(C(F)(F)F)c3)c(C#N)c2)nc1=O` [5-((9-Methoxy-4-oxo-6,7-dihydro-4H-pyrimido[6,1-a]isoquinolin-2-yl)oxy)-2-(3-(trifluoromethyl)phenoxy)benzonitrile], in assay [3], the “M1 markers (proinflammatory) expression” value was “decrease” and the “M2 markers (anti-inflammatory) expression” value was “increase”. In the case of `COc1ncc(Cc2c[nH]c(OCCc3ccc(Oc4ncccn4)cc3)nc2=O)cn1` [E147, 5-((2-methoxypyrimidin-5-yl)methyl)-2-(4-(pyrimidin-2-yloxy)phenethoxy)pyrimidin-4(1H)-one], in assay [1], the pIC50 was under 5.00. The IC50 in assay [2] was over 10 µM. With `CCc1c[nH]c(SCc2ccc(Oc3ccc(Cl)c(C(F)(F)F)c3)c(C#N)c2)nc1=O` [E83, 2-{[4-chloro-3-(trifluoromethyl)phenyl]oxy}-5-{[(5-ethyl-4-oxo-1,4-dihydro-2-pyrimidinyl)thio]methyl}benzonitrile], in assay [2], the IC50 was over 10 µM.
